Starred links: 1 amine or outer side, 2 acyl side, 3 side chain; linkers in the order of their positions; H or OH if unused. Positions of bridges follow the written chain, without caps; N, C: chain ends. Non-standard residues stand in square brackets, D forms with d. Residues, ends and D or L forms follow the SMILES beside them. Chains are numbered I, II in the order given. Actinocin(9to1) = Cc1c2oc3c(C)ccc(C(=O)[*:1])c3nc-2c(C(=O)[*:2])c(N)c1=O; NMeV = CN[C@H](C(=O)O)C(C)C; Sar = CNCC(=O)O
Legend:
syntaxin-1A [1] = assay: Syntaxin-1A expression (mRNA/protein) in HEK293 cells transfected with the α1A P/Q type calcium channel; format: cell-based, human; settings: for calcium dependent induction of syntaxin-1A: α1A transfected cells
syntaxin-1A [2] = assay: Syntaxin-1A expression in untransfected HEK293 cells treated with agents that alter intracellular calcium; format: cell-based; settings: for syntaxin-1A mRNA levels: untransfected cells / absence of α1A transfection
syntaxin-1A [3] = assay: Syntaxin-1A expression in cerebellar granule cells (endogenous P/Q type channels); format: cell-based
Experimental: The foregoing results in HEK293 transfected cells were correlated with the endogenous P/Q type channels in neurons. Syntaxin-1A is basally expressed in cerebellar granule cells, but this is inhibited by ω Agatoxin IVA, which is known to inhibit calcium P/Q type channels specifically. […] Treatment of these cerebellar granule cells, which had been incubated in ω Agatoxin IVA with thapsigargin recovered the syntaxin-1A expression.
Syntaxin-1A expression was inhibited by the same agents as had inhibited it in HEK293 cells including inhibitors of ryanodine —or IP3—induced calcium release from stores, of CaM kinase II/IV, and of PKA, or MAPKK.

## CC(=O)OCOC(=O)CN(CC(=O)OCOC(C)=O)c1ccccc1OCCOc1ccccc1N(CC(=O)OCOC(C)=O)CC(=O)OCOC(C)=O [BAPTA-AM]
syntaxin-1A [1]
  calcium dependent induction of syntaxin-1A: blocked

## CC(=O)OCOC(=O)CN(CCOCCOCCN(CC(=O)OCOC(C)=O)CC(=O)OCOC(C)=O)CC(=O)OCOC(C)=O [EGTA-AM]
syntaxin-1A [1]
  calcium dependent induction of syntaxin-1A: blocked

## Cc1c2oc3c(C)ccc(C(=O)N[C@@H]4C(=O)N[C@H](C(C)C)C(=O)N5CCC[C@H]5C(=O)N(C)CC(=O)N(C)[C@@H](C(C)C)C(=O)O[C@@H]4C)c3nc-2c(C(=O)N[C@@H]2C(=O)N[C@H](C(C)C)C(=O)N3CCC[C@H]3C(=O)N(C)CC(=O)N(C)[C@@H](C(C)C)C(=O)O[C@@H]2C)c(N)c1=O [actinomycin D] (I: T[dV]P[Sar][NMeV] / II: T[dV]P[Sar][NMeV]; ester I:1-I:C, II:1-II:C; linker I:N-II:N via Actinocin(9to1))
syntaxin-1A [1]; HEK293 cells transfected with the α1A P/Q type calcium channel
  mRNA corresponding to syntaxin-1A: inhibited

## Cn1c(=O)c2c(ncn2C)n(C)c1=O [caffeine]
syntaxin-1A [2]; untransfected cells
  calcium release from ryanodine- and IP3-sensitive stores: activated
syntaxin-1A [2]
  syntaxin-1A mRNA levels: stimulated

## C[N+](C)(C)CCOC(N)=O [carbachol]
syntaxin-1A [2]; untransfected cells
  calcium release from ryanodine- and IP3-sensitive stores: activated
syntaxin-1A [2]
  syntaxin-1A mRNA levels: stimulated

## C[C@H](CCC(=O)O)C[C@H](C)C[C@H](C)C(=O)/C=C(\O)[C@H](C)C[C@H](C)C/C=C/[C@@H](C)[C@@H](O)[C@@H](C)[C@@H](O)C[C@@H]1CC[C@@](C)([C@H]2CC[C@@](C)([C@@H](C)O)O2)O1 [ionomycin]
syntaxin-1A [2]
  levels giving maximal activation of syntaxin-1A production: 50 to 200 nM

## C/C=C(/C)C(=O)O[C@H]1C(C)=C2[C@H]([C@@H]1OC(=O)CCCCCCC)[C@@](C)(OC(C)=O)C[C@H](OC(=O)CCC)[C@@]1(O)[C@H]2OC(=O)[C@@]1(C)O [thapsigargin]
syntaxin-1A [3]; cerebellar granule cells which had been incubated in ω Agatoxin IVA
  syntaxin-1A expression after P/Q block: recovered
syntaxin-1A [2]; untransfected cells
  syntaxin-1A expression: stimulated

## ω Agatoxin IVA
syntaxin-1A [3]; cerebellar granule cells
  syntaxin-1A expression (basal, calcium dependent): inhibited
